Patent publication US9487502B2, “Chemical compounds” (Syngenta Limited, priority 2013, dated 2016)

Key:
Type in all cases: in vivo
Design in all cases: key: 5=total damage to plant; 0=no damage to plant
Abutilon theophrasti [1] = assay: Pre-emergence herbicidal activity, ABUTH; settings: 1000 g/Ha, sprayed pre-emergence, evaluated after 13 days, scale 0-5
Experimental: (§1) Seeds of a variety of test species were sown in standard soil in pots. After cultivation for one day (pre-emergence) under controlled conditions in a glasshouse (at 24/16° C., day/night; 14 hours light; 65% humidity), the plants were sprayed with an aqueous spray solution derived from the formulation of the technical active ingredient in acetone/water (50:50) solution containing 0.5% Tween 20 (polyoxyethelyene sorbitan monolaurate, CAS RN 9005-64-5). The test plants were then grown in a glasshouse under controlled conditions (at 24/16° C., day/night; 14 hours light; 65% humidity) and watered twice daily. After 13 days, the test was evaluated (5=total damage to plant; 0=no damage to plant).

Amaranthus retroflexus [2] = assay: Pre-emergence herbicidal activity, AMARE; settings: 1000 g/Ha, sprayed pre-emergence, evaluated after 13 days, scale 0-5
Experimental: as §1

Setaria faberi [3] = assay: Pre-emergence herbicidal activity, SETFA; settings: 1000 g/Ha, sprayed pre-emergence, evaluated after 13 days, scale 0-5
Experimental: as §1

Echinochloa crus-galli [4] = assay: Pre-emergence herbicidal activity, ECHCG; settings: 1000 g/Ha, sprayed pre-emergence, evaluated after 13 days, scale 0-5
Experimental: as §1

Alopecurus myosuroides [5] = assay: Pre-emergence herbicidal activity, ALOMY; settings: 1000 g/Ha, sprayed pre-emergence, evaluated after 13 days, scale 0-5
Experimental: as §1

Zea mays [6] = assay: Pre-emergence herbicidal activity, ZEAMX; settings: 1000 g/Ha, sprayed pre-emergence, evaluated after 13 days, scale 0-5
Experimental: as §1

Setaria faberi [7] = assay: Post-emergence herbicidal activity, SETFA; settings: 1000 g/Ha, sprayed post-emergence (8 days cultivation), evaluated after 13 days, scale 0-5
Experimental: (§2) Seeds of a variety of test species were sown in standard soil in pots. After 8 days cultivation (post-emergence) under controlled conditions in a glasshouse (at 24/16° C., day/night; 14 hours light; 65% humidity), the plants were sprayed with an aqueous spray solution derived from the formulation of the technical active ingredient in acetone/water (50:50) solution containing 0.5% Tween 20 (polyoxyethelyene sorbitan monolaurate, CAS RN 9005-64-5). The test plants were then grown in a glasshouse under controlled conditions (at 24/16° C., day/night; 14 hours light; 65% humidity) and watered twice daily. After 13 days, the test was evaluated (5=total damage to plant; 0=no damage to plant).

Abutilon theophrasti [8] = assay: Post-emergence herbicidal activity, ABUTH; settings: 1000 g/Ha, sprayed post-emergence (8 days cultivation), evaluated after 13 days, scale 0-5
Experimental: as §2

Amaranthus retroflexus [9] = assay: Post-emergence herbicidal activity, AMARE; settings: 1000 g/Ha, sprayed post-emergence (8 days cultivation), evaluated after 13 days, scale 0-5
Experimental: as §2

Alopecurus myosuroides [10] = assay: Post-emergence herbicidal activity, ALOMY; settings: 1000 g/Ha, sprayed post-emergence (8 days cultivation), evaluated after 13 days, scale 0-5
Experimental: as §2

Echinochloa crus-galli [11] = assay: Post-emergence herbicidal activity, ECHCG; settings: 1000 g/Ha, sprayed post-emergence (8 days cultivation), evaluated after 13 days, scale 0-5
Experimental: as §2

Zea mays [12] = assay: Post-emergence herbicidal activity, ZEAMX; settings: 1000 g/Ha, sprayed post-emergence (8 days cultivation), evaluated after 13 days, scale 0-5
Experimental: as §2

Row | Structure (SMILES) | ABUTH damage score, application pre-emergence (Abutilon theophrasti [1]) | AMARE damage score, application pre-emergence (Amaranthus retroflexus [2]) | SETFA damage score, application pre-emergence (Setaria faberi [3]) | ECHCG damage score, application pre-emergence (Echinochloa crus-galli [4]) | ALOMY damage score, application pre-emergence (Alopecurus myosuroides [5]) | ZEAMX damage score, application pre-emergence (Zea mays [6]) | SETFA damage score, application post-emergence (Setaria faberi [7]) | ABUTH damage score, application post-emergence (Abutilon theophrasti [8]) | AMARE damage score, application post-emergence (Amaranthus retroflexus [9]) | ALOMY damage score, application post-emergence (Alopecurus myosuroides [10]) | ECHCG damage score, application post-emergence (Echinochloa crus-galli [11]) | ZEAMX damage score, application post-emergence (Zea mays [12])
1 | CCOC1C(O)N(c2cc(C(C)(C)C)ncn2)C(=O)N1CC (stereo not drawn) [Example A27] | 1 | 1 | 0 | 0 | 0 | 0 | 3 | 4 | 0 | 1 | 0 | 2
2 | CON1C(=O)N(c2cc(C(C)(C)F)ncn2)C(O)C1C (stereo not drawn) [Example A21] | 5 | 5 | 5 | 4 | 3 | 3 | 5 | 5 | 5 | 5 | 5 | 4
3 | CC1C(O)N(c2cc(C(C)(C)C#N)ncn2)C(=O)N1C (stereo not drawn) [Example A24] | 5 | 5 | 5 | 5 | 4 | 2 | 5 | 5 | 5 | 4 | 5 | 5
4 | CN1C(=O)N(c2cc(C(C)(C)C)ncn2)C(O)C1O (stereo not drawn) [Example A4, 1-(6-tert-butylpyrimidin-4-yl)-4,5-dihydroxy-3-methyl-imidazolidin-2-one] | 4 | 5 | 2 | 2 | 2 | 0 | 4 | 4 | 5 | 4 | 2 | 1
5 | CON1C(=O)N(c2cc(C(C)(C)C)ncn2)C(O)C1O (stereo not drawn) [Example A9] | 0 | 5 | 1 | 2 | 3 | 1 | 4 | 5 | 5 | 4 | 4 | 1
6 | CCCOC1C(O)N(c2cc(C(C)(C)C)ncn2)C(=O)N1C (stereo not drawn) [Example A10] | 4 | 5 | 4 | 2 | 4 | 2 | 4 | 5 | 5 | 4 | 4 | 2
7 | CN1CC(O)N(c2cc(C(C)(C)C#N)ncn2)C1=O (stereo not drawn) [Example A2] | 4 | 5 | 5 | 4 | 4 | 3 | 5 | 5 | 5 | 5 | 5 | 3
8 | CN1C(=O)N(c2cc(C(C)(C)C)ncn2)C(O)C1C(F)(F)F (stereo not drawn) [Example A31] | 2 | 2 | 4 | 3 | 3 | 0 | 5 | 5 | 1 | 4 | 3 | 1
9 | CN1C(=O)N(c2cc(C(C)(C)C)ncn2)C(O)C1CC(F)(F)F (stereo not drawn) [Example A34] | 4 | 5 | 2 | 1 | 1 | 0 | 3 | 5 | 2 | 3 | 0 | 2
10 | CCOC1C(O)N(c2cc(C(C)(C)C)ncn2)C(=O)N1OC (stereo not drawn) [Example A8] | 5 | 5 | 5 | 5 | 5 | 1 | 5 | 5 | 5 | 5 | 5 | 4
